Results published in patent publication US11883524B2, “Cosmetic compositions” (MARY KAY INC., priority 2018, dated 2024).

Key:
[1] = test system: procollagen peptide production by human epidermal fibroblasts; assay: Increase of collagen stimulation (procollagen peptide ELISA); assay type: cell-based; conditions: human adult epidermal fibroblasts, treated 3 days
Excerpt: Increase of Collagen Stimulation: Collagen is an extracellular matrix protein critical for skin structure. Increased synthesis of collagen helps improve skin firmness and elasticity. This bioassay was used to examine the effect of tetrahexyldecyl ascorbate, and/or Phyllanthus emblica fruit extract on the production of procollagen peptide (a precursor to collagen) by human epidermal fibroblasts. The endpoint of this assay was a spectrophotometric measurement that reflects the presence of procollagen peptide and cellular viability. The assay employed the quantitative sandwich enzyme immunoassay technique whereby a monoclonal antibody specific for procollagen peptide had been pre-coated onto a microplate. Standards and samples were pipetted into the wells and any procollagen peptide present was bound by the immobilized antibody. […] Following a wash to remove any unbound antibody-enzyme reagent, a substrate solution was added to the wells and color develops in proportion to the amount of procollagen peptide bound in the initial step using a microplate reader for detection at 450 nm. The color development was stopped and the intensity of the color was measured. […] Following incubation, cell culture medium was collected and the amount of procollagen peptide secretion quantified using a sandwich enzyme linked immuno-sorbant assay (ELISA) from Takara (#MK101).

[2] = target: T1, MMP3 (Homo sapiens, UniProt P08254); assay: Inhibition of matrix metalloproteinase enzyme activity (MMP3) assay; assay type: biochemical
T1 construct: purchased BioMol International AK-400
Excerpt: Inhibition of Matrix Metalloproteinase Enzyme Activity (MMP3) Assay: MMPs are extracellular proteases that play a role in many normal and disease states by virtue of their broad substrate specificity. MMP3 substrates include collagens, fibronectins, and laminin; while MMP9 substrates include collagen VII, fibronectins and laminin. Using Colorimetric Drug Discovery kits from BioMol International for MMP3 (AK-400) and MMP-9 (AK-410), this assay was designed to measure protease activity of MMPs using a thiopeptide as a chromogenic substrate (Ac-PLG-[2-mercapto-4-methyl-pentanoyl]-LG-OC2H5)5,6. The MMP cleavage site peptide bond was replaced by a thioester bond in the thiopeptide. Hydrolysis of this bond by an MMP produced a sulfhydryl group, which reacted with DTNB [5,5′-dithiobis(2-nitrobenzoic acid), Ellman's reagent] to form 2-nitro-5-thiobenzoic acid, which was detected by its absorbance at 412 nm (ε=13,600 M-1 cm-1 at pH 6.0 and above 7). Tetrahexyldecyl ascorbate was assayed.

T1 sequence (P08254 100-272 limits assumed): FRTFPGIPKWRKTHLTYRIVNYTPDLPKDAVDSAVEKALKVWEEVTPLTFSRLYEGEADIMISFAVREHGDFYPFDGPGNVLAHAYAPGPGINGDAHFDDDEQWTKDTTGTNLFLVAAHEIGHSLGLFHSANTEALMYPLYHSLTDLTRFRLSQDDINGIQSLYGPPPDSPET

- Inhibition of MMP3 activity [2]: −38%
SMILES: CCCCCCCCC(CCCCCC)C(=O)OC[C@H](OC(=O)C(CCCCCC)CCCCCCCC)[C@H]1OC(=O)C(OC(=O)C(CCCCCC)CCCCCCCC)=C1OC(=O)C(CCCCCC)CCCCCCCC (some centres unmarked) [Tetrahexyldecyl ascorbate]
- Increase of collagen [1]: +50%
